Source: US20260226086A1, “COMPOUNDS AND COMPOSITIONS AS STAT3 DEGRADERS AND USES THEREOF” (REGENTS OF THE UNIVERSITY OF MICHIGAN, priority 2023, published 2026)
pIC50: −log10 of the molar value. Like-named read-outs stand apart in the source and are kept apart here.

How the values were obtained:
Format in all cases: cell-based
[1] = tested on: SU-DHL-1 cells; assay: CellTiter-Glo 2.0 cell viability assay, SU-DHL-1; conditions: Homo sapiens, 96 h, 4 days
Protocol: (§1) For example, cell viability may be determined by CellTiter-Glo 2.0 Cell Viability Assay. In a typical procedure, cells seeded at certain amounts of cells (e.g., 1000 cells) per well are incubated with serially diluted compounds for certain period (e.g., 4 days) under certain conditions (e.g., at 37° C. with 5% CO2). At the end of treatment, CellTiter-Glo 2.0 is added to the wells and luminescence is acquired on TECAN SPARK plate reader. Untreated cells are used as control, Data points are fit with an equation (e.g., a four-parameter equation) to generate a concentration-response curve. IC50 values are calculated using a nonlinear regression analysis of the mean±SD from triplicate.
(§2) SU-DHL-1 and SUP-M2 cell viability was determined by CellTiter-Glo 2.0 Cell Viability Assay (Promega). SU-DHL-1 cell line was purchased from ATCC (Manassas, VA) and SUP-M2 (ACC-509) was purchased from DSMZ (Germany). RPMI 1640 medium and fetal bovine serum (FBS) were purchased from Gibco/Thermo Fisher Scientific. In a typical procedure, cells seeded at 1000 cells per well in 384-well white plates (Corning) were incubated with serially diluted compounds for 4 days at 37° C. with 5% C02. At the end of treatment, CellTiter-Glo 2.0 was added to the wells and luminescence was acquired on TECAN SPARK plate reader. Untreated cells were used as control. Data points were fit with a four-parameter equation to generate a concentration-response curve. IC50 values were calculated using a nonlinear regression analysis of the mean±SD from triplicate.

[2] = tested on: SUP-M2 cells; assay: CellTiter-Glo 2.0 cell viability assay, SUP-M2; conditions: SUP-M2, 96 h, 4 days
Protocol: as §1, §2

[3] = biological target: T1, STAT3 (Homo sapiens, UniProt P40763); assay: HiBiT assay, STAT3 degradation in STAT3-HiBiT KI HeLa cells; conditions: for DC50: read-out: STAT3 Degradation (HeLa 24 h HiBit) DC50
T1 construct: This cell line is a clone created by using CRISPR-Cas9 to fuse HiBiT to the 3′ end of STAT3 in HeLa cells; host or cells: STAT3-HiBiT KI HeLa cell line (CRISPR-Cas9 knock-in clone)
T1 sequence (P40763 whole entry): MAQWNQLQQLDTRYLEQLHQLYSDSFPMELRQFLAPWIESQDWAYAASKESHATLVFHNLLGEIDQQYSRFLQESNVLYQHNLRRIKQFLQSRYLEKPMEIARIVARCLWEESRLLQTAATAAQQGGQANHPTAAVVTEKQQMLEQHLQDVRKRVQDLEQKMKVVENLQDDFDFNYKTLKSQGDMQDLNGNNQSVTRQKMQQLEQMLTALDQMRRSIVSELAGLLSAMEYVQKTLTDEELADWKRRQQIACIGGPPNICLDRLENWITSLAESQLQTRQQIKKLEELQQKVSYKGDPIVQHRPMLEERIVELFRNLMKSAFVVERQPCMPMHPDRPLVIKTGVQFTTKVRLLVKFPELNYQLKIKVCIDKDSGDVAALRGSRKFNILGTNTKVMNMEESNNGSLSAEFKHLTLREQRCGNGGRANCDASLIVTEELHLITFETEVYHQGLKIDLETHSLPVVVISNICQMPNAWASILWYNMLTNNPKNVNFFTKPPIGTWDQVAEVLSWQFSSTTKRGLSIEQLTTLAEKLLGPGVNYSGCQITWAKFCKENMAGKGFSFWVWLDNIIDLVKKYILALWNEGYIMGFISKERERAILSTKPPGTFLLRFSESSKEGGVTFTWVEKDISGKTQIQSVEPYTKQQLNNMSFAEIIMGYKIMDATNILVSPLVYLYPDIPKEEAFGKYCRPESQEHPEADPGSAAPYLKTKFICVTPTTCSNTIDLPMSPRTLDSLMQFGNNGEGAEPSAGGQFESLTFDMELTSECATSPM
Protocol: STAT3 degradation may be determined by HiBiT assay. STAT3-HiBiT KI HeLa cell line, which is a clone created by using CRTISPR-Cas9 to fuse HiBiT to the 3′ end of STAT3 in HeLa cells, may be used for this assay. In a typical procedure, cells seeded at certain amounts of cells (e.g., 20000 cells) per well are incubated with serially diluted compounds for certain period of time (e.g., 24 hours) under certain conditions (e.g., at 37° C. with 5% CO2). At the end of treatment, Nano-Glo HiBiT Lytic Detection reagents is added to the wells and luminescence is acquired on TECAN SPARK plate reader. Untreated cells are used as control. Data points are fit with a four-parameter equation to generate a concentration-response curve. IC50 values are calculated using a nonlinear regression analysis of the mean±SD from triplicate.
STAT3-HiBiT KI HeLa cell line was purchased from Promega. This cell line is a clone created by using CRISPR-Cas9 to fuse HiBiT to the 3′ end of STAT3 in HeLa cells. DMEM medium and FBS were purchased from Gibco/Thermo Fisher Scientific. STAT3 degradation was determined based on quantification of luminescent signal using Nano-Glo HiBiT Lytic Detection System. In a typical procedure, cells seeded at 20000 cells per well in 96-well white plates (Corning) were incubated with serially diluted compounds for 24 hours at 37° C. with 5% CO2. At the end of treatment, Nano-Glo HiBiT Lytic Detection reagents was added to the wells and luminescence was acquired on TECAN SPARK plate reader. Untreated cells were used as control. Data points were fit with a four-parameter equation to generate a concentration-response curve. IC50 values were calculated using a nonlinear regression analysis of the mean±SD from triplicate.

Structure (SMILES) | pIC50 [1] | pIC50 [2] | DC50 [3] [nM] | Dmax at 1 µM ([3]; 24 h) [%] | DC50 ([3]; 24 h) [nM]
Cc1ncsc1-c1ccc([C@H](C)NC(=O)[C@@H]2C[C@@H](O)CN2C(=O)[C@@H](n2cc(CCCCCCC(=O)N3CC[C@H]4CC[C@@H](C(=O)N[C@@H](CCC(N)=O)C(=O)NC(c5ccccc5)c5ccccc5)N4C(=O)[C@@H](NC(=O)c4cc5cc(C(=O)P(=O)(O)O)ccc5[nH]4)C3)nn2)C(C)(C)C)cc1 [Compound 59, (2-(((5S,8S,10aR)-8-(((S)-5-amino-1-(benzhydrylamino)-1,5-dioxopentan-2-yl)carbamoyl)-3-(7-(1-((S)-1-((2S,4R)-4-hydroxy-2-(((S)-1-(4-(4-methylthiazol-5-yl)phenyl)ethyl)carbamoyl)pyrrolidin-1-yl)-3,3-dimethyl-1-oxobutan-2-yl)-1H-1,2,3-triazol-4-yl)heptanoyl)-6-oxodecahydropyrrolo[1,2-a][1,5]diazocin-5-yl)carbamoyl)-1H-indole-5-carbonyl)phosphonic acid] | < 6.00 | < 6.00 | > 1000 | – | –
Cc1ncsc1-c1ccc([C@H](C)NC(=O)[C@@H]2C[C@@H](O)CN2C(=O)[C@@H](n2cc(CCC(=O)N3CC[C@H]4CC[C@@H](C(=O)N[C@@H](CCC(N)=O)C(=O)NCc5cccc(Cl)c5)N4C(=O)[C@@H](NC(=O)c4cc5cc(C(=O)P(=O)(O)O)ccc5[nH]4)C3)nn2)C(C)(C)C)cc1 [Compound 8, (2-(((5S,8S,10aR)-8-(((S)-5-amino-1-((3-chlorobenzyl)amino)-1,5-dioxopentan-2-yl)carbamoyl)-3-(3-(1-((S)-1-((2S,4R)-4-hydroxy-2-(((S)-1-(4-(4-methylthiazol-5-yl)phenyl)ethyl)carbamoyl)pyrrolidin-1-yl)-3,3-dimethyl-1-oxobutan-2-yl)-1H-1,2,3-triazol-4-yl)propanoyl)-6-oxodecahydropyrrolo[1,2-a][1,5]diazocin-5-yl)carbamoyl)-1H-indole-5-carbonyl)phosphonic acid] | 6.00 to 7.00 | 7.00 to 8.00 | – | > 80 | 100 to 1000
Cc1ncsc1-c1ccc([C@H](C)NC(=O)[C@@H]2C[C@@H](O)CN2C(=O)[C@@H](NC(=O)CCCCCCCCC(=O)N2CC[C@H]3CC[C@@H](C(=O)N[C@@H](CCC(N)=O)C(=O)NC(c4ccccc4)c4ccccc4)N3C(=O)[C@@H](NC(=O)c3cc4cc(C(=O)P(=O)(O)O)ccc4[nH]3)C2)C(C)(C)C)cc1 [Compound 53, (2-(((5S,8S,10aR)-8-(((S)-5-amino-1-(benzhydrylamino)-1,5-dioxopentan-2-yl)carbamoyl)-3-(10-(((S)-1-((2S,4R)-4-hydroxy-2-(((S)-1-(4-(4-methylthiazol-5-yl)phenyl)ethyl)carbamoyl)pyrrolidin-1-yl)-3,3-dimethyl-1-oxobutan-2-yl)amino)-10-oxodecanoyl)-6-oxodecahydropyrrolo[1,2-a][1,5]diazocin-5-yl)carbamoyl)-1H-indole-5-carbonyl)phosphonic acid] | 6.00 to 7.00 | 6.00 to 7.00 | – | – | 100 to 1000
CCS(=O)(=O)c1ccc(CNC(=O)[C@H](CCC(N)=O)NC(=O)[C@@H]2CC[C@@H]3CCN(C(=O)CCCCCCc4cn([C@H](C(=O)N5C[C@H](O)C[C@H]5C(=O)N[C@@H](C)c5ccc(-c6scnc6C)cc5)C(C)(C)C)nn4)C[C@H](NC(=O)c4cc5cc(C(=O)P(=O)(O)O)ccc5[nH]4)C(=O)N32)cc1 [Compound 15, (2-(((5S,8S,10aR)-8-(((S)-5-amino-1-((4-(ethylsulfonyl)benzyl)amino)-1,5-dioxopentan-2-yl)carbamoyl)-3-(7-(1-((S)-1-((2S,4R)-4-hydroxy-2-(((S)-1-(4-(4-methylthiazol-5-yl)phenyl)ethyl)carbamoyl)pyrrolidin-1-yl)-3,3-dimethyl-1-oxobutan-2-yl)-1H-1,2,3-triazol-4-yl)heptanoyl)-6-oxodecahydropyrrolo[1,2-a][1,5]diazocin-5-yl)carbamoyl)-1H-indole-5-carbonyl)phosphonic acid] | 7.00 to 8.00 | 7.00 to 8.00 | – | > 80 | < 10
